The record followed here is US20050090466A1, “Inhibitors of PACE4 for the treatment of arthritis” (Pharmacia & Upjohn Company LLC, priority 2003, published 2005).

Data set [1] deals with PACE4 mRNA. The data set can be described thus: Aggrecanase activity in TNF-α and OSM stimulated cultured human chondrocytes after PACE4 RNAi. In kind it is cell-based. As to conditions: 100 nM dsRNA; human chondrocytes stimulated with TNF-α and OSM; vs stimulated controls; FIG. 1. How it is done:
(§1) The sequence CGGCAAUGAUUAUGACCCAtt (SEQ ID NO. 2) was selected as a sense strand for dsRNA. The corresponding antisense strand, UGGGUCAUAAUCAUUGCCGtt, (SEQ ID NO. 3) was also selected. dsRNA was synthesized commercially (Ambion, Austin, Tex. 78744-1832 USA) and 100 nM was introduced into cultured human chondrocytes and human cartilage stimulated with TNF-α and Oncostatin M (OSM). It is known that stimulation of cartilage or chondrocytes with TNF-α and OSM will induce cartilage degradation and upregulate aggrecanase. Nonsense dsRNA, that is, dsRNA with the same […], but scrambled in sequence, were introduced into cultured human chondrocytes and human cartilage explants as controls. The control groups are not expected to induce RNAi, since the dsRNA is not expected to produce an inhibitory effect on mRNA. […] 2 and SEQ ID NO. 3.

The subject of data set [2] is PACE4 mRNA. The data set can be described thus: Electrophoresis gel of aggrecan degradation products in TNF/OSM treated cartilage explants. The format is cell-based, human. As to conditions: 100 nM dsRNA, vs controls, FIG. 2. How it is done:
FIG. 2 depicts an electrophoresis gel showing aggrecan-degradation products in untreated (lane 1), TNF/OSM treated control (lane 2) and TNF/OSM treated, PACE4 siRNA treated cartilage explants; and
as §1
Referring now to FIG. 2, the aggrecanase mediated cleavage of aggrecan, shown by the aggrecan derived peptide neopitope fragment AGEG (SEQ ID NO. 10) and the aggrecan derived peptide neopepitope fragment ARGS (SEQ ID NO. 11) was reduced with interfering dsRNA, as compared to controls.

The test system of data set [3] is PACE4 mRNA. The data set is described as follows: Glycosaminoglycan (GAG) release from TNF/OSM treated cartilage explants into the supernatant. The conditions noted are these: 100 nM dsRNA, vs nonsense dsRNA, FIG. 3. In kind it is cell-based, human.
Excerpt: FIG. 3 is a bar graph showing glycosaminoglycan (GAG) release from cartilage explants into the supernatant is reduced in TNF/OSM treated cartilage explants with the addition of siRNA of SEQ ID NO. 2 and SEQ ID NO. 3 (narrow shaded bar) as compared with normal control (unshaded bar) and TNF/OSM treated cartilage explants with nonsense dsRNA.
as §1
Glycosaminoglycan (GAG) release from proteoglycan and depressed proteoglycan synthesis are thought to be correlated with cartilage destruction in arthritis. […]

With “siRNA of SEQ ID NO. 2 and SEQ ID NO. 3: dsRNA: sense strand CGGCAAUGAUUAUGACCCAtt (SEQ ID NO. 2), antisense strand UGGGUCAUAAUCAUUGCCGtt (SEQ ID NO. 3); inhibits PACE4 mRNA (sense CGGCAAUGAUUAUGACCCATT; antisense UGGGUCAUAAUCAUUGCCGTT; dsRNA with lower-case tt overhangs, chemistry of tt not given here, further chemistry not given here)”, in the data set on PACE4 mRNA [1], the “reduction in aggrecanase activity” value is recorded as “greater than eighty percent reduction”. Further, in the data set on PACE4 mRNA [2], the “aggrecanase mediated cleavage of aggrecan (neoepitope fragments AGEG and ARGS)” value is listed as “reduced”. The “glycosaminoglycan (GAG) release from cartilage explants into the supernatant” value with PACE4 mRNA [3] is recorded as “reduced”.
